# Experimental data from patent US20040087604A1, “Hetero-tricyclic compounds having substituted amino groups” (priority 2001, published 2004).
# Test system: IgE production against ovalbumin (OVA)
# Test: Suppressive effect on the IgE production against ovalbumin (OVA); anti-OVA IgE antibody titer (PCA titer)
# Assay type: in vivo
# Details: BALB/c mice immunized with OVA; oral dose 40 mg/kg for 10 days; titer = n where serum PCA-positive till 2^n dilution
# Procedure: Suppressive Effect on the IgE Production Against Ovalbumin (OVA)
# BALB/c mice (female, 8-10 weeks old) and Wistar rats (female, 8-10 weeks old) which were bought from Japan SLC, Inc. (Shizuoka) were used.
# BALB/c mice were immunized by an intraperitoneal administration of 0.2 ml suspension of 2 μg of ovalbumin (OVA) and 2 mg of aluminium hydroxide gel in physiological saline. After 10 days, blood was collected from hearts, then sera were separated and stocked at −40° C. till the measurement of IgE antibody titer.
# After the compound of the present invention was dissolved or suspended in N,N-dimethylacetoamide, the mixture was diluted 20 times with miglyol 812 neutral oil. The obtained solution was orally administered to mice at 0.1 ml per mouse (dose 40 mg/kg). The administration was continued for 10 days from the immunizing day to the day before the blood collection.
# 4) Mesurement of Anti-OVA IgE Antibody Titer (PCA Titer)
# The obtained mouse serum was 2-fold diluted with physiological saline, then each 50 μl the solution was intradermally injected at dorsal skin of Wistar rats which previously hair cut. […] The rats were sacrified 30 minutes later and the highest dilution giving bluing with a diameter of 5 mm or more was recorded as the PCA titer. […]
smiles,measurement,value
Cc1c(C)c(-c2ccc(NC(C)C)nc2)c(C)c(C)c1-c1ccc(NC(C)C)nc1 [Compound 169],"PCA (anti-OVA IgE antibody titer, PCA titer)",<0
